Source: patent publication US20170258871A1, “COMBINED USE OF A TRKA INHIBITOR AND AN EPHA2 INHIBITOR FOR USING IN THE TREATMENT OF SOLID CANCERS, AND METHOD FOR THE PROGNOSIS OF SURVIVAL OF A PATIENT WHO HAS A SOLID CANCER” (UNIVERSITE DES SCIENCES ET TECHNOLOGIES DE LILLE, priority 2014, published 2017)

Experiments:
Format in all cases: cell-based
CAL33 cells = assay: In vitro invasion test (Boyden chamber), CAL 33; settings: NGF 16 nM or proNGF N.C. 0.5 nM, untreated cells = 100%
Method: (§1) (0.5 nM) for a period of 20 hours. The untreated cells represent the control and determine a base invasion of 100%.
(§2) The Boyden Chambers (Transwell®; BD Biosciences; France) were recovered from a biological matrix (type 1 collagen from rats diluted to 400 μg·mL-1 in EMEM-0.1% FCS medium; Millipore). The cells were then seeded with 100,000 cells/well on PET membranes (polyethylene terephtalate; dia.: 10.5 mm; porosity: 8 μm) of Boyden Chambers and held in an EMEM-0.1% FCS medium. […] (0.5 nM) in the lower part. After 20 hours of culture, they were washed twice with PBS 1× and fixed (ice cold methanol; 15 min; −20° C.). The non-invasive cells (upper face of the Transwell®) were eliminated by scraping. The number of cells was estimated after staining with Hoechst 33 258 (1 mM; 30 min; 20° C.) by counting the nuclei thereof using fluorescence microscopy on a total of 5 five randomly chosen fields (lens 10×; λ-excitation: 345 nm; λ-emission: 478 nm; Eclipse Ti) using the ImageJ software. Each experiment was performed in triplicate. Statistical analysis of the results was performed by analysis of variance ANOVA (Bonferroni post-hoc test).

FaDu cells = assay: In vitro invasion test (Boyden chamber), FaDu; settings: NGF 16 nM or proNGF N.C. 0.5 nM, untreated cells = 100%
Method: as §1, §2

SQ20B cells = assay: In vitro invasion test (Boyden chamber), SQ20B; settings: NGF 16 nM or proNGF N.C. 0.5 nM, untreated cells = 100%
Method: as §1, §2

CAL27 cells = assay: In vitro invasion test (Boyden chamber), CAL 27; settings: NGF 16 nM or proNGF N.C. 0.5 nM, untreated cells = 100%
Method: as §1, §2

EphA2 = assay: Western blot of EphA2 expression after siRNA; settings: MDA-MB-231 HA-TrkA transfected with siEphA2
Method: D. Cells MDA-MB-231 HA-TrkA were transfected with siEphA2 and then treated with proNGF N.C. (30 min). The recruitment of the sortilin and EphA2 was determined after anti-HA immunoprecipitation.
The sequences of siRNA used against EphA2 (siEphA2) at 100 pmol for each transfection, and against TrkA (pool of 3 siTrkA 1, 2 and 3) are given in table 1. The transfections of siRNA are produced by means of […]in™ according to the manufacturers instructions (POL409-10, Polyplus transfection, Ozyme, Saint Quentin en Yvelines, France).
After treatment, the cells were lysed (lysis buffer: 40 mM HEPES pH 7.5; 1 mM EDTA pH 8.0; 120 mM NaCl; 10 mM NaPPi; 50 mM NaF; 1.5 mM Na3VO4; 1% Triton X 100; 0.1% SDS; 1 mM PMSF; 10% glycerol and 1/100 th of protease inhibitor cocktail (Sigma) (20 min; 4° C.)). The lysates were recovered and clarified by centrifugation (12,000 g; 10 min; 4° C.). The supernatant was then stored at −80° C. until use. The protein extracts were diluted to 2 μg·μL−1 in a Laemmli 1× buffer (7 min; 100° C.) then deposited and separated on SDS-PAGE (concentration gel 3.6% acrylamide and separation gel 7.5% to 10% acrylamide (thickness 1 mm); 180 V; 10 min then 200 V constant; until output of the migration front). […] The membranes were placed in an image analyser (LAS 4000; Fuji) connected to a computer which allowed image generation (software Image Reader LAS 4000). […]

| Substance | cell invasion under growth factor (CAL33 cells) | cell invasion under growth factor (FaDu cells) | cell invasion under growth factor (SQ20B cells) | cell invasion under growth factor (CAL27 cells) | expression of EphA2 protein (EphA2) |
| --- | --- | --- | --- | --- | --- |
| NGF: Nerve Growth Factor; recombinant human β NGF supplied by Scil Proteins | increased cell invasion | did not respond | induced | did not respond | – |
| siEphA2: siRNA against EphA2, GCAAGGAAGUGGUACUGCUGGACUU (SEQ ID NO: 1) (listed as RNA, chemistry not given here) | – | – | – | – | completely abolished the expression |
